Test [1] has as its system HeLa cervical adenocarcinoma. Briefly: Cell Proliferation Inhibition Assay (14C-thymidine incorporation), HeLa.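 Note: test compound in DMSO added to cells seeded in scintillating 96-well plates, DMSO-only wells as control, uptake of methyl 14C-thymidine into new DNA counted.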 In kind it is cell-based. Conditions: Homo sapiens, HeLa cells.
The test system of test [2] is A375 malignant melanoma. As to the kind of experiment: Cell Proliferation Inhibition Assay (14C-thymidine incorporation), A375.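 Note: proliferation measured by radiolabelled thymidine uptake into new DNA, counted in scintillating 96-well plates, compound-treated wells compared with DMSO-only control wells.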 In kind it is cell-based. The conditions noted are these: Homo sapiens, A-375, A375 cells. A general note: Incorporation of labelled thymidine or its analogues reports DNA synthesis.
In test [3] the target is T1, CDK1 (Homo sapiens, UniProt P06493).
T1 construct: purchased New England Biolabs, Beverly, Mass; 6020; host or cells: insect cells
Briefly: CDK-1 kinase screening assay (33P-ATP FlashPlate). Conditions: human CDK1 with cyclin B; 10 μM ATP; 1 hr at 30° C. The class given is biochemical.

In test [4] the target is T2, c-Src kinase (Homo sapiens, UniProt P12931).
T2 construct: purchased Upstate Biotechnology, Lake Placid, N.Y
As to the kind of experiment: c-Src Kinase Assay. In kind it is biochemical. The conditions noted are these: 5 μM ATP. How it is done: A mixture of a 10× kinase buffer (80 mM MOPS at pH 7.0, 2 mM EDTA and 100 mM Magnesium Chloride), ATP (5 μM final from a 10 mM stock), a Cdc2 peptide […] (100 μM final from a 2.5 mM stock), γ-^33P ATP (10 μCi/μL stock) and water (for a total of 20 μL/well) was added to each well of a Streptavidin Flashplate.
Test compound in 100% DMSO (0.5 μL) was added to the appropriate wells. Diluted c-Src kinase (human) (Accession Number SWISS-PROT P12931) (Upstate Biotechnology, Lake Placid, N.Y.) (diluted in a buffer consisting of 20 mM MOPS at pH 7.0, 1 mM EDTA, β-mercaptoethanol (0.1%), Brij-35 (0.01%), glycerol (5%), and 1 mg/mL bovine serum albumin) (2.5 μL) was added to the wells to initiate the reactions. The reaction plates were incubated at 30° C. for 40 min. The reaction was terminated by the addition of a 3% phosphoric acid solution (5 μL). The reaction product (10 μL) was spotted onto a P30 filtermat and washed for 5 minutes in phosphoric acid (75 mM). The wash sequence was repeated two more times, followed with one final wash in methanol. The plates were then dried, sealed and read on the TopCount scintillation counter after adding 30 μL scintillation fluid.
A maximum and minimum signal for the assay was determined on each plate. The percent inhibition of a test compound was calculated according to the formula: […]
For a series of test concentrations, the IC50 was derived by graphing percent inhibition against the log of the concentrations tested for a given compound with results shown in Table 2
For compounds with multiple values, each value represents a separate assay result.

Test [5] concerns the target T3, HER2 (Homo sapiens, UniProt P04626).
T3 construct: GST (Glutathione-S-Transferase) (N); HIS6 (N); thrombin cleavage site (N); purchased Proqinase, Freiburg, Germany
Briefly: HER2 kinase screening assay (33P-ATP FlashPlate).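 Note: Biotin-poly(GT) 4:1 peptide captured on streptavidin FlashPlate, 33P transfer from γ-ATP read by scintillation counting, lower incorporation means inhibition, 1% DMSO final, 100 µL reaction.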 The class given is biochemical. Conditions: GST-HIS6 HER-2 aa 679 to 1255; 10 μM ATP; 1 hr at 30° C.

In test [6] the target is T4, VEGF-R2 (Rattus norvegicus, UniProt O08775).
T4 construct: polyhistidine (N)
As to the kind of experiment: VEGF-R2 kinase screening assay (33P-ATP FlashPlate).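 Note: Read-out is ³³P incorporation from ³³P-γ-ATP into biotinylated peptide substrate captured on streptavidin FlashPlate, counted by scintillation, 1% DMSO final, inhibition scaled between per-plate maximum and minimum signals.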 The class given is biochemical. The conditions noted are these: rat VEGF-R2 kinase domain; 10 μM ATP; 1 hr at 30° C.

In test [7] the test system is HCT-116 colon carcinoma. As to the kind of experiment: Cell Proliferation Inhibition Assay (14C-thymidine incorporation), HCT-116.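 Note: proliferation measured as methyl 14C-thymidine uptake into new DNA, counted in 96-well scintillating microplates, compared with DMSO-only control wells.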 The conditions noted are these: Homo sapiens. The class given is cell-based.
The target in test [8] is T5, Aurora-A (Mus musculus, UniProt P97477).
T5 construct: polyhistidine (N)
T5 sequence (P97477 1-395): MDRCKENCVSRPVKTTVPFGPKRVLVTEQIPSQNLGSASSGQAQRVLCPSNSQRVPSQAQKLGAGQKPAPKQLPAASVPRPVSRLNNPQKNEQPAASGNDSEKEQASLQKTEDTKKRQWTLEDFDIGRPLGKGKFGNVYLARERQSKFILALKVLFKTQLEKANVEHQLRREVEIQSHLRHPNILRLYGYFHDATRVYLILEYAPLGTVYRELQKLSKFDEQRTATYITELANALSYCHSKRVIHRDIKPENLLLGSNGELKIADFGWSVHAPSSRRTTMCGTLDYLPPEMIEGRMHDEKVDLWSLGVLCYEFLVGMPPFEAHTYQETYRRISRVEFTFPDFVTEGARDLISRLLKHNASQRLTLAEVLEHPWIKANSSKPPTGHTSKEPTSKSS
Briefly: Aurora-A kinase screening assay (33P-ATP FlashPlate).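 Note: His-tagged mouse Aurora-A phosphorylating a biotinylated peptide captured on streptavidin plates, read as 33P uptake by scintillation counting, 1% DMSO, inhibition scaled between per-plate maximum and minimum signals.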 In kind it is biochemical. Conditions: 10 μM ATP, 1 hr at 30° C.

The target in test [9] is T6, RET (Homo sapiens, UniProt P07949).
T6 construct: polyhistidine (N)
T6 sequence (P07949 658-1114 limits assumed): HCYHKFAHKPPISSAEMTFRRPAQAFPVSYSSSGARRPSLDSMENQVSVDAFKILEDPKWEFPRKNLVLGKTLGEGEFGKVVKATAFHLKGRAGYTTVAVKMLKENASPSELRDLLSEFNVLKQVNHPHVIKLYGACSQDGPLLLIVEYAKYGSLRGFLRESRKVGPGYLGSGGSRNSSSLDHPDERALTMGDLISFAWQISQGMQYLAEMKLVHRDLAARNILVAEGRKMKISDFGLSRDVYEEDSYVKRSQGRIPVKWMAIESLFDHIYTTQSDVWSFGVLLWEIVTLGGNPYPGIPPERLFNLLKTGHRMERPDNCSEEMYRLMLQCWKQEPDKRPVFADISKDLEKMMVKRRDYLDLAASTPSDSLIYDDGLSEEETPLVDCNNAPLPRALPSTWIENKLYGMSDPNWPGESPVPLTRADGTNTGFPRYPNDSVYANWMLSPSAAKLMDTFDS
Briefly: RET kinase screening assay (33P-ATP FlashPlate).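 Note: biotinylated peptide substrate captured on streptavidin FlashPlate, 33P phosphate transfer read by scintillation counting, 1% DMSO, lower incorporation means inhibition, percent relative to per-plate maximum and minimum signals.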 The conditions noted are these: human RET kinase domain; 10 μM ATP; 1 hr at 30° C. In kind it is biochemical.

T4 sequence (O08775 786-1343): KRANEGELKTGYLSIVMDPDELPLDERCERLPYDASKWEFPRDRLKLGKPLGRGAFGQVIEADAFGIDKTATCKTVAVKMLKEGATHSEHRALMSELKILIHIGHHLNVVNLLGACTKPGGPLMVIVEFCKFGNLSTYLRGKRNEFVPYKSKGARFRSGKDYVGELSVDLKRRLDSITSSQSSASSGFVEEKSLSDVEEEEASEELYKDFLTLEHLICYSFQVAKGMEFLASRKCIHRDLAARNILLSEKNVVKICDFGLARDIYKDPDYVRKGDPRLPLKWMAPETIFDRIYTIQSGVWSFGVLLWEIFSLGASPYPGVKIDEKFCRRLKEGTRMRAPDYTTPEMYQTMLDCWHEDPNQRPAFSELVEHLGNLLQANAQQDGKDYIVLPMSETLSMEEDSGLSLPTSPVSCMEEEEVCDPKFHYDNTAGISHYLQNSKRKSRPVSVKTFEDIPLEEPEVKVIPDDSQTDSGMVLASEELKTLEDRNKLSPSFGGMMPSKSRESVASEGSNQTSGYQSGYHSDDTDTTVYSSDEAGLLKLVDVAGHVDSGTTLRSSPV
T1 sequence (P06493 whole entry): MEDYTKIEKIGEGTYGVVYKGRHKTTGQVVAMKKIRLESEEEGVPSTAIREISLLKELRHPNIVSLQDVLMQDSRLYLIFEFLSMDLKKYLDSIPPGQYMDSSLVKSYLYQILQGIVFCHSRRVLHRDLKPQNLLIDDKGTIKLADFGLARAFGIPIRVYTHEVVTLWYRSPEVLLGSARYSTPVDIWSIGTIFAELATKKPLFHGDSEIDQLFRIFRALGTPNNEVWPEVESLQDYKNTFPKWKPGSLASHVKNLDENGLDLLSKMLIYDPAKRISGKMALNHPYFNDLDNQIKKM
T1 sequence (P14635 whole entry partner): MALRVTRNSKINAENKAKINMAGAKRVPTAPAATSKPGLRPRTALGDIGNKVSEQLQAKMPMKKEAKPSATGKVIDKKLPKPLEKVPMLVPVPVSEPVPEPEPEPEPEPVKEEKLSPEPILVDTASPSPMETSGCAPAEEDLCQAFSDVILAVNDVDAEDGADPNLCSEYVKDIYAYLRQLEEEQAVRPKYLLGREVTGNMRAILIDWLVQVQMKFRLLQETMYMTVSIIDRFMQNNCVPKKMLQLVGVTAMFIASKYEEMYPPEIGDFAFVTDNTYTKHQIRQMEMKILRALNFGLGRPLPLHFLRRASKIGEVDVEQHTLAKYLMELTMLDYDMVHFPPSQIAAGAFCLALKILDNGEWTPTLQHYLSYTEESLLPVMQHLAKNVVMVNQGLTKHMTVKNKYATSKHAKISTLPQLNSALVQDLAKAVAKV
T3 sequence (P04626 679-1255): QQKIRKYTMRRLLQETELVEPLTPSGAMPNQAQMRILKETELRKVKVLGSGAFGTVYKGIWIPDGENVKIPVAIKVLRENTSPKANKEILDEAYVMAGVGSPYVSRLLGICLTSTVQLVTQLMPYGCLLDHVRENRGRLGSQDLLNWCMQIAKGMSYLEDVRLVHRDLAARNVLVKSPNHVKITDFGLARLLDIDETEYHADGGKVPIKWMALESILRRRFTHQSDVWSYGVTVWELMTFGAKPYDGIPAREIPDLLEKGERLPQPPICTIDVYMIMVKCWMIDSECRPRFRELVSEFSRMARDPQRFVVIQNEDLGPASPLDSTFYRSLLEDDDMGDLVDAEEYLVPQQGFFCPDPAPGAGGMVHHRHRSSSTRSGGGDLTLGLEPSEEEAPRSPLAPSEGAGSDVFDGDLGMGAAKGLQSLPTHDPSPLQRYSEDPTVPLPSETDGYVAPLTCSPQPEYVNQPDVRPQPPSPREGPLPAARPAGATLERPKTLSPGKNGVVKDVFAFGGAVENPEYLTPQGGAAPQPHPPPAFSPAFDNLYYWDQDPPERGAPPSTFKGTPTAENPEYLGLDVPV
T2 sequence (P12931 whole entry): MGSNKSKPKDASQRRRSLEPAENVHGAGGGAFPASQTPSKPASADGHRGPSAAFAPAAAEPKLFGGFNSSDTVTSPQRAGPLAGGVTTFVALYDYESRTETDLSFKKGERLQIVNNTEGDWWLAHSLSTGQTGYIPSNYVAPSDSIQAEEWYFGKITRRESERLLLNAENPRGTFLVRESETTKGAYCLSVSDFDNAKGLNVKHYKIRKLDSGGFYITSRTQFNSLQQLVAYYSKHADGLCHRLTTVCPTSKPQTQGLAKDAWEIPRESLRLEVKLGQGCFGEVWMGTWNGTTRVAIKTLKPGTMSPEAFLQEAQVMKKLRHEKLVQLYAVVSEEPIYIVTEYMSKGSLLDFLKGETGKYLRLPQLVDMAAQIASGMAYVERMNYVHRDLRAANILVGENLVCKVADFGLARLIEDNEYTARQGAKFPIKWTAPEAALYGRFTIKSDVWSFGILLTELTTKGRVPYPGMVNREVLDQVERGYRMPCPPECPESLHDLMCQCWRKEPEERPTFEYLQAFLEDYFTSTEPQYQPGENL

`COCc1cccc2[nH]c(-c3n[nH]c4ncc(-c5cc[nH]c5)cc34)nc12` [Cpd 40, 3-(4-methoxymethyl-1H-benzoimidazol-2-yl)-5-(1H-pyrrol-3-yl)-1H-pyrazolo[3,4-b]pyridine]: the half-maximal inhibitory concentration (IC50) in test [1] (HeLa) was 1220 nM; in test [2] it was 73.7 nM; in test [3], 1190 nM; in test [4], 327 nM; in [5] it was > 100000 nM; in [6], 462 nM. Besides, the IC50 in [7] (HCT-116, HCT-116 cells) is 56.5 nM; in [8], ~1000 nM.

With `COCCNCc1cncc(-c2cnc3[nH]nc(-c4nc5c(COC)cccc5[nH]4)c3c2)c1` [Cpd 75, (2-methoxy-ethyl)-{5-[3-(4-methoxymethyl-1H-benzoimidazol-2-yl)-1H-pyrazolo[3,4-b]pyridin-5-yl]-pyridin-3-ylmethyl}-amine], the IC50 is > 10000 nM in test [9]; 594 nM in test [1] (HeLa); 205 nM in test [2]; 63.6 nM in test [3]; 378 nM in [4]; > 10000 nM in test [5]. For the same compound, the IC50 was found to be 1640 nM in test [6]; 163 nM in [7] (HCT-116, HCT-116 cells); 4500 nM in test [8].

For `COCc1cccc2[nH]c(-c3n[nH]c4ncc(-c5cncc(CNCCN(C)C)c5)cc34)nc12` [Cpd 76, N′-{5-[3-(4-methoxymethyl-1H-benzoimidazol-2-yl)-1H-pyrazolo[3,4-b]pyridin-5-yl]-pyridin-3-ylmethyl}-N,N-dimethyl-ethane-1,2-diamine], the IC50 was > 100000 nM in test [9]; 10100 nM in test [1] (HeLa); 178 nM in [2]; 595 nM in test [3]; 1010 nM in test [4]; > 100000 nM in test [5]. Also, the concentration for half-maximal inhibition (IC50) in test [6] stood at 1370 nM; in [7] (HCT-116, HCT-116 cells), 255 nM; in test [8], 6600 nM.

As to `COc1ccc2[nH]c(-c3n[nH]c4ncc(-c5cncc(CNC(C)C)c5)cc34)nc2c1` [Cpd 102, isopropyl-{5-[3-(5-methoxy-1H-benzoimidazol-2-yl)-1H-pyrazolo[3,4-b]pyridin-5-yl]-pyridin-3-ylmethyl}-amine], the IC50 was ~1000 nM in test [9]; 47.2 nM in [1] (HeLa); 120 nM in test [2]; 3.2 nM in test [3]; 11.7 nM in test [4]; 10700 nM in [5]. In addition, the IC50 is 269 nM in [6]; 106 nM in [7] (HCT-116, HCT-116 cells); 359 nM in test [8].

Consider `COCc1cccc2[nH]c(-c3n[nH]c4ncc(-c5cncc(CNCCN6CCOCC6)c5)cc34)nc12` [Cpd 74, {5-[3-(4-methoxymethyl-1H-benzoimidazol-2-yl)-1H-pyrazolo[3,4-b]pyridin-5-yl]-pyridin-3-ylmethyl}-(2-morpholin-4-yl-ethyl)-amine], for which the IC50 in [9] is ~100000 nM; in test [1] (HeLa) it was 4780 nM; in test [2], 459 nM; in test [3], 551 nM; in test [4], 954 nM; in test [5] it was ~100000 nM. Further, the 50% inhibitory concentration (IC50) in test [6] is 284 nM; in test [7] (HCT-116, HCT-116 cells), 386 nM; in [8], 6820 nM.

On to `FC(F)(F)Oc1ccc2[nH]c(-c3n[nH]c4ncc(-c5cccnc5)cc34)nc2c1` [Cpd 94, 5-pyridin-3-yl-3-(5-trifluoromethoxy-1H-benzoimidazol-2-yl)-1H-pyrazolo[3,4-b]pyridine], for which the IC50 in [9] was > 100000 nM; in [1] (HeLa) it was 799 nM; in test [2], 645 nM; in test [3] it was 6 nM; in test [4], 756 nM; in test [5] it was > 100000 nM. For the same compound, the IC50 in test [7] (HCT-116, HCT-116 cells) is 519 nM; in [8] it was > 10000 nM.

With `OCCOc1ccc2[nH]c(-c3n[nH]c4ncc(-c5cccnc5)cc34)nc2c1` [Cpd 95, 2-[2-(5-pyridin-3-yl-1H-pyrazolo[3,4-b]pyridine-3-yl)-1H-benzoimidazol-5-yloxyl]-ethanol], the concentration for half-maximal inhibition (IC50) in test [9] was > 1000 nM; in test [1] (HeLa), 1930 nM; in test [2], 2650 nM; in [3], 3.4 nM; in test [4] it was 74 nM; in [5], > 100000 nM. For the same compound, the 50% inhibitory concentration (IC50) in [7] (HCT-116, HCT-116 cells) stood at 1410 nM; in test [8], 229 nM.

For the compound `c1ccc2c(-c3cnc4[nH]nc(-c5nc6c(COCCN7CCOCC7)cccc6[nH]5)c4c3)cncc2c1` [Cpd 15, 4-{3-[4-(2-morpholin-4-yl-ethoxymethyl)-1H-benzoimidazol-2-yl]-1H-pyrazolo[3,4-b]pyridin-5-yl}-isoquinoline], the IC50 was 929 nM in test [9]; 8520 nM in test [1] (HeLa); 7610 nM in test [2]; 33 nM in [3]; ~100000 nM in [5]; ~1000 nM in test [6]. In addition, the IC50 worked out at 5820 nM in [7] (HCT-116, HCT-116 cells) and 2270 nM in test [8].

As for `CNCc1cncc(-c2cnc3[nH]nc(-c4nc5c(COC)cccc5[nH]4)c3c2)c1C` [Cpd 62, {5-[3-(4-methoxymethyl-1H-benzoimidazol-2-yl)-1H-pyrazolo[3,4-b]pyridin-5-yl]-4-methyl-pyridin-3-ylmethyl}-methyl-amine], the IC50 is ~10000 nM in [9]; 1180 nM in test [1] (HeLa); 62.3 nM in test [2]; 68.1 nM in test [3]; > 100000 nM in [5]; 2790 nM in [6]. Moreover, the half-maximal inhibitory concentration (IC50) in test [7] (HCT-116, HCT-116 cells) turned out to be 229 nM; in test [8] it was 1750 nM.

As for `COCc1cccc2[nH]c(-c3n[nH]c4ncc(-c5ccc(N6CCN(C(=O)OC(C)(C)C)CC6)nc5)cc34)nc12` [Cpd 67, 4-{5-[3-(4-methoxymethyl-1H-benzoimidazol-2-yl)-1H-pyrazolo[3,4-b]pyridin-5-yl]-pyridin-2-yl}-piperazine-1-carboxylic acid tert-butyl ester], the IC50 in test [9] is > 100000 nM; in test [1] (HeLa) it was 1980 nM; in [2], 10.9 nM; in test [3], > 10000 nM; in [5], > 100000 nM; in [6] it was > 10000 nM. Further, the half-maximal inhibitory concentration (IC50) in [7] (HCT-116, HCT-116 cells) was 24.5 nM; in test [8], > 100000 nM.

For the compound `CC(C)OCc1cccc2[nH]c(-c3n[nH]c4ncc(-c5cncc6ccccc56)cc34)nc12` [Cpd 32, 4-[3-(4-isopropoxymethyl-1H-benzoimidazol-2-yl)-1H-pyrazolo[3,4-b]pyridin-5-yl]-isoquinoline], the IC50 is > 100000 nM in test [9]; 2140 nM in [1]; 905 nM in test [2]; 98.7 nM in [3]; > 100000 nM in test [5]; ~100 nM in test [6]. The IC50 is 2880 nM in [7] (HCT-116 cells) and > 1000 nM in test [8].

In general, IC50 refers to the point on the concentration scale where inhibition reaches its midpoint.

These data come from patent publication US7541367B2, “3-benzoimidazolyl-pyrazolopyridines useful in treating kinase disorders” (Janssen Pharmaceutica, N.V., priority 2005, dated 2009).
